Experimental data reported in patent EP2692352A1, “HOT FLASH SUPPRESSANT” (Shiseido Company, Ltd., priority 2011, dated 2014).

Assays:
Apelin receptor APJ = experiment: cAMP luciferase assay in APJ-expressing NIH3T3 cells (screening system for apelin-like agents); type: cell-based; settings: FIG. 3
Experimental: A cAMP luciferase reporter vector was transfected into a stable cell line, which was obtained by highly expressing Apelin receptor APJ in NIH3T3 cells, and then subjecting to selection with hygromycin (provided by Professor Nobuyuki Takakura of the Research Institute for Microbial Diseases of Osaka University), and these were used in the cAMP luciferase assay described below. Culturing was carried out in DMEM medium containing 10% FBS containing 200 µg/ml of hygromycin (Invitrogen). On the day before the assay, 2.0 x 10^5 cells were seeded into each well of a 96-well plate followed by culturing in DMEM medium containing 10% FBS and 200 µg/ml of hygromycin.
After culturing overnight, the medium was removed by aspiration and replaced with 100 µl of additive-free DMEM per well. Three hours later, Glosensor™ cAMP Reagent (Promega) was added at 4 µl per well followed by equilibrating for 2 hours at room temperature under light blocking. Subsequently, apelin 13 (Peptide Institute) was diluted with additive-free DMEM medium to a concentration of 0.4 µg/ml and this was added at 50 µl per well (final concentration: 0.1 µg/ml) followed by incubating for 5 minutes at room temperature. […] Subsequently, luminescence was measured with the GloMax™ 96 Microplate Luminometer (Promega). […]

menopausal mice = settings: apelin highly expressed in epidermis (K14 promoter transgene, OVXTG) vs OVXWT; nifedipine 50 µg/kg i.p.; 10, 30 and 45 minutes; FIG. 1
Experimental: Ovariectomy was performed on C57/BL6 mice highly expressing apelin in the epidermis under the control of a K14 promoter (herein after referred to as apelin-highly expressed mice, apelin TG or TG) and the corresponding wild-type mice (C57/BL6) (n=5, 8 to 10 week-old) to obtain menopausal mice highly expressing apelin and menopausal wild type mice. Furthermore, wild type mice that underwent sham surgery were used as a control. Four weeks later, nifedipine (50 µg/kg) was administered intraperitoneally as a vasodilator, and changes in tail temperature were analyzed using thermography (Thermo Tracer TH9011MR, NEC/Avio Infrared Technologies Co., Ltd.) at 10, 30 and 45 minutes after administration.

apelin
cAMP concentration (Apelin receptor APJ; apelin 13 final concentration 0.1 µg/ml, forskolin final 10 µM, versus forskolin-only control): decreased | decreases in cAMP concentration in the presence of apelin neutralizing antibody (Apelin receptor APJ; apelin final 0.5 µg/ml together with neutralizing antibody 4G5 at 1.5, 5, 15 and 50 µg/ml): suppressed | transient rises in body temperature (tail temperature) caused by hot flashes (menopausal mice): able to suppress or improve transient rises in body temperature caused by hot flashes in a short period of time
